Laboratory results from article PMC8286840, “Identifying SARS-CoV-2 antiviral compounds by screening for small molecule inhibitors of Nsp3 papain-like protease” (Biochemical Journal, 2021).
Counter-ions that a name gives are not always drawn. Like-named read-outs stand apart in the source and are kept apart here. Where no end group is shown, it is not given here.

Columns and labels:
[1] = biological target: T1, SARS-CoV-2 PLpro (nsp3 1564–1878) (Severe acute respiratory syndrome coronavirus 2, UniProt P0DTD1); experiment: biochemical; design: FRET-quenched peptide (Pro3) cleavage by PLpro, 10 min pre-incubation, slope over 20 min, normalised to no-compound control; settings: read-out: % of control remaining
[2] = biological target: T1, SARS-CoV-2 PLpro (nsp3 1564–1878); experiment: biochemical; design: FRET-quenched peptide (Pro3) cleavage by PLpro, 10 min pre-incubation, slope over 20 min, normalised to no-compound control; settings: read-out: % of control remaining; remark: listed apart in the source

CC1(C)S[C@@H]2[C@H](NC(=O)[C@H](N)c3ccc(O)cc3)C(=O)N2[C@H]1C(=O)O [Amoxicillin]
remaining activity at 3.75 µM ([1]; Well no.=2000, high concentration screen): 100% | remaining activity at 3.75 µM ([1]; Well no.=7654, high concentration screen): 97.6% | remaining activity at 1.25 µM ([2]; Well no.=2000, low concentration screen): 98.8% | remaining activity at 1.25 µM ([2]; Well no.=7654, low concentration screen): 97%

C[C@H]1C[C@@H]2[C@H]([C@@H](O)C[C@@]3(C)[C@H]2CC[C@]3(O)C(=O)CO)[C@@]2(C)C=CC(=O)C=C12 [Methylprednisolone]
remaining activity at 3.75 µM ([1]; Well no.=1957, high concentration screen): 99.7% | remaining activity at 3.75 µM ([1]; Well no.=6179, high concentration screen): 95.1% | remaining activity at 1.25 µM ([2]; Well no.=1957, low concentration screen): 100% | remaining activity at 1.25 µM ([2]; Well no.=6179, low concentration screen): 95.4%

CN1CCC(c2c[nH]c3ccc(O)cc23)CC1 [BRL 54443 maleate]
remaining activity at 3.75 µM ([1]; Well no.=231, high concentration screen): 101% | remaining activity at 1.25 µM ([2]; Well no.=231, low concentration screen): 101%

Nc1c(S(=O)(=O)O)cc(Nc2ccc(Nc3nc(Cl)nc(Nc4cccc(S(=O)(=O)O)c4)n3)c(S(=O)(=O)O)c2)c2c1C(=O)c1ccccc1C2=O [Reactive Blue 2]
remaining activity at 3.75 µM [1]: 101% | remaining activity at 1.25 µM [2]: 101%

CN(C)c1cccc(-c2c3c(=O)n(-c4ccccc4Cl)[nH]c3cc(=O)n2C)c1 [GKT137831]
remaining activity at 3.75 µM ([1]; Well no.=9078, high concentration screen): 89.9% | remaining activity at 1.25 µM ([2]; Well no.=9078, low concentration screen): 96.8%

CC(CC(c1ccccc1)c1ccccc1)NC(C)(C)C (stereo not shown) [Terodiline hydrochloride]
remaining activity at 3.75 µM ([1]; Well no.=5438, high concentration screen): 99.3% | remaining activity at 1.25 µM ([2]; Well no.=5438, low concentration screen): 94.4%

CCCCCCCCCCCCCCCC(=O)OC[C@H](O)[C@H]1OC(=O)C(O)=C1O [Ascorbyl palmitate]
remaining activity at 3.75 µM ([1]; Well no.=4041, high concentration screen): 105% | remaining activity at 1.25 µM ([2]; Well no.=4041, low concentration screen): 102%

O=C1CC[C@@]2(O)[C@H]3Cc4ccc(O)c5c4[C@@]2(CCN3CC2CC2)[C@H]1O5 [Naltrexone (Hydrochloride)]
remaining activity at 3.75 µM ([1]; Well no.=8147, high concentration screen): 95.1% | remaining activity at 1.25 µM ([2]; Well no.=8147, low concentration screen): 98.3%

CCCCCC/C=C/C=C\CCCCCCCC(=O)O [(9Z,11E)-Octadecadienoic acid]
remaining activity at 3.75 µM ([1]; Well no.=4354, high concentration screen): 106% | remaining activity at 1.25 µM ([2]; Well no.=4354, low concentration screen): 106%

NCCCC(O)(P(=O)(O)O)P(=O)(O)O [Alendronate]
remaining activity at 3.75 µM ([1]; Well no.=2079, high concentration screen): 104% | remaining activity at 1.25 µM ([2]; Well no.=2079, low concentration screen): 105%

CC(C(=O)O)c1ccc2c(c1)Cc1cccnc1O2 (stereo not shown) [Pranoprofen]
remaining activity at 3.75 µM ([1]; Well no.=2139, high concentration screen): 99.8% | remaining activity at 1.25 µM ([2]; Well no.=2139, low concentration screen): 98.7%

COCc1c(C(C)C)nc(C(C)C)c(/C=C/[C@@H](O)C[C@@H](O)CC(=O)O)c1-c1ccc(F)cc1 [Cerivastatin]
remaining activity at 3.75 µM ([1]; Well no.=1571, high concentration screen): 93.5% | remaining activity at 1.25 µM ([2]; Well no.=1571, low concentration screen): 91.1%

N#C/C(=C(/N)Sc1ccc(N)cc1)c1ccccc1C(F)(F)F
remaining activity at 3.75 µM ([1]; Well no.=2480, high concentration screen): 98.3% | remaining activity at 1.25 µM ([2]; Well no.=2480, low concentration screen): 98.7%

Cc1nc(=O)c2cc(CN(C)c3ccc(C(=O)N[C@@H](CCC(=O)O)C(=O)O)s3)ccc2[nH]1 [Raltitrexed (Tomudex)]
remaining activity at 3.75 µM ([1]; Well no.=4723, high concentration screen): 106% | remaining activity at 1.25 µM ([2]; Well no.=4723, low concentration screen): 115%

CCCCCCCCCCCC1N[C@H](C(=O)O)CS1 (stereo partly drawn) [(4R) - 2-Undecyl-4-thiazolidinecarboxylic acid]
remaining activity at 3.75 µM ([1]; Well no.=5484, high concentration screen): 106% | remaining activity at 1.25 µM ([2]; Well no.=5484, low concentration screen): 104%

COc1ccc([C@@H]2Sc3ccccc3N(CCN(C)C)C(=O)[C@@H]2OC(C)=O)cc1 [Diltiazem]
remaining activity at 3.75 µM ([1]; Well no.=1713, high concentration screen): 102% | remaining activity at 1.25 µM ([2]; Well no.=1713, low concentration screen): 104%

DRVYVHPF [Angiotensin II 5-valine]
remaining activity at 3.75 µM ([1]; Well no.=7899, high concentration screen): 97.5% | remaining activity at 3.75 µM ([1]; Well no.=7986, high concentration screen): 89.7% | remaining activity at 1.25 µM ([2]; Well no.=7899, low concentration screen): 98.8% | remaining activity at 1.25 µM ([2]; Well no.=7986, low concentration screen): 90.3%

O=c1cc(CO)occ1O [5-hydroxy-2-(hydroxymethyl)-4H-pyran-4-one]
remaining activity at 3.75 µM ([1]; Well no.=5437, high concentration screen): 113% | remaining activity at 1.25 µM ([2]; Well no.=5437, low concentration screen): 109%

CCn1cc(C(=O)O)c(=O)c2cc3c(cc21)OCO3 [Oxolinic acid]
remaining activity at 3.75 µM ([1]; Well no.=1134, high concentration screen): 98.5% | remaining activity at 1.25 µM ([2]; Well no.=1134, low concentration screen): 98.1%

CC(C)c1cccc(C(C)C)c1O [Propofol]
remaining activity at 3.75 µM ([1]; Well no.=544, high concentration screen): 103% | remaining activity at 3.75 µM ([1]; Well no.=1893, high concentration screen): 89.6% | remaining activity at 1.25 µM ([2]; Well no.=544, low concentration screen): 104% | remaining activity at 1.25 µM ([2]; Well no.=1893, low concentration screen): 92.7%

[N-]=[N+]=N[C@@H]1[C@H](O)[C@@H](n2ccc(=O)[nH]c2=O)O[C@H]1CO [3'-Azido-3'-deoxy-beta-L-uridine]
remaining activity at 3.75 µM ([1]; Well no.=7758, high concentration screen): 102% | remaining activity at 1.25 µM ([2]; Well no.=7758, low concentration screen): 97.9%

N#CC(=C(/N)Sc1ccccc1N)/C(C#N)=C(\N)Sc1ccccc1N [U0126]
remaining activity at 3.75 µM ([1]; Well no.=1240, high concentration screen): 101% | remaining activity at 1.25 µM ([2]; Well no.=1240, low concentration screen): 99.2%

CN1CCN(CCCCN2C(=O)CN(/N=C/c3ccc(-c4ccc(Cl)cc4)o3)C2=O)CC1 [1-({(E)-[5-(4-chlorophenyl)-2-furyl]methylidene}amino)-3-[4-(4-methyl-1-piperazinyl)butyl]-2,4-imidazolidinedione dihydrochloride]
remaining activity at 3.75 µM ([1]; Well no.=5603, high concentration screen): 101% | remaining activity at 1.25 µM ([2]; Well no.=5603, low concentration screen): 97.6%

C[C@@H]1CN([C@H]2CC[C@](C#N)(c3ccc(F)cc3)CC2)CC[C@]1(C(=O)O)c1ccccc1 [Levocabastine.HCl]
remaining activity at 3.75 µM ([1]; Well no.=2058, high concentration screen): 99.2% | remaining activity at 1.25 µM ([2]; Well no.=2058, low concentration screen): 97.6%

COCCc1ccc(OCC(O)CNC(C)C)cc1 (stereo not shown) [Metoprolol]
remaining activity at 3.75 µM ([1]; Well no.=1959, high concentration screen): 102% | remaining activity at 1.25 µM ([2]; Well no.=1959, low concentration screen): 102%

COC(=O)c1c(-c2cc(OC)c(OC)c(OC)c2)c2ccnc(OCc3ncccn3)c2c(=O)n1Cc1ccnc(C)c1 [T-0156]
remaining activity at 3.75 µM ([1]; Well no.=1230, high concentration screen): 102% | remaining activity at 1.25 µM ([2]; Well no.=1230, low concentration screen): 102%

CC[C@@]1(O)C(=O)OCc2c1cc1n(c2=O)Cc2cc3ccccc3nc2-1 [(S)-(+)-Camptothecin]
remaining activity at 3.75 µM ([1]; Well no.=483, high concentration screen): 90.7% | remaining activity at 1.25 µM ([2]; Well no.=483, low concentration screen): 100%

COc1cc2ncnc(Nc3cccc(O)c3)c2cc1OC [WHI-P180, Hydrochloride]
remaining activity at 3.75 µM ([1]; Well no.=2679, high concentration screen): 96.7% | remaining activity at 1.25 µM ([2]; Well no.=2679, low concentration screen): 96%

OC[C@H]1O[C@@H](n2cnc3c(N[C@@H]4CCc5ccccc54)ncnc32)[C@H](O)[C@@H]1O [PD 117519]
remaining activity at 3.75 µM ([1]; Well no.=7763, high concentration screen): 102% | remaining activity at 3.75 µM ([1]; Well no.=8169, high concentration screen): 110% | remaining activity at 1.25 µM ([2]; Well no.=7763, low concentration screen): 96.4% | remaining activity at 1.25 µM ([2]; Well no.=8169, low concentration screen): 106%

O=C1CCCC(=O)C1C(=O)c1ccc(C(F)(F)F)cc1[N+](=O)[O-] [Nitisinone]
remaining activity at 3.75 µM ([1]; Well no.=5887, high concentration screen): 103% | remaining activity at 1.25 µM ([2]; Well no.=5887, low concentration screen): 103%

NC(=O)CI [Iodoacetamide]
remaining activity at 3.75 µM ([1]; Well no.=430, high concentration screen): 96.4% | remaining activity at 1.25 µM ([2]; Well no.=430, low concentration screen): 104%

CN(C)CC/C=C1/c2ccccc2Sc2ccc(Cl)cc21 [Chlorprothixene hydrochloride]
remaining activity at 3.75 µM ([1]; Well no.=45, high concentration screen): 90.5% | remaining activity at 1.25 µM ([2]; Well no.=45, low concentration screen): 89.3%

Cc1ccc(OC[C@H](O)[C@@H](C)NC(C)C)c2c1CCC2 [ICI 118,551 hydrochloride]
remaining activity at 3.75 µM ([1]; Well no.=1113, high concentration screen): 102% | remaining activity at 1.25 µM ([2]; Well no.=1113, low concentration screen): 100%
